Entries after “also recorded” stand apart in the source; their conditions may differ.
Tests used:
[1] = Particle size and surface potential of pDNA-encapsulating MENDs, dynamic light scattering (Zetasizer Nano); type: physicochemical
Experimental: A solution of pDNA encoding luciferase gene and protamine (CALBIOCHEM) solution were diluted with 10 mM HEPES buffer to 0.3 mg/mL and […], respectively. While stirring 0.3 mg/mL pDNA (125 μL), 0.24 mg/mL protamine (125 μL) was added dropwise in small portions to prepared an electrostatic complex of protamine and pDNA (N/P ratio=1.2) as a core of the vector. In the method described in the following (2), 10 mM HEPES buffer (pH 5.3) was used and, in the method described in (3), 10 mM HEPES buffer (pH 7.4) was used.
A lipid solution in ethanol was prepared by mixing 5 mM cationic lipid, 5 mM phospholipid and 5 mM cholesterol (Chol) at desired ratios to achieve 165 nmol total lipid in an Eppendorf tube, further adding various PEG lipids (1 mM solution in ethanol) in an amount corresponding to 3 mol % of the total lipid, and adding ethanol to achieve a total volume of 100 μL. While stirring the lipid solution in a vortex mixer, 100 μL of the nucleic acid electrostatic complex (10 mM HEPES; pH 5.3) prepared in [Experimental Example 1] (1) was quickly added, and thereafter 10 mM HEPES buffer (1.8 mL, adjusted to pH 5.3) was added to dilute the mixture to an ethanol concentration of 5%. The mixture was concentrated to about 50 μL by ultrafiltration using Amicon Ultra 4 (Millipore) under centrifugation conditions (room temperature, 2267 rpm, 20 min). Thereafter, it was diluted to 4 mL with 100 mM HEPES buffer (adjusted to pH 7.4), and again concentrated by centrifugation (2267 rpm, 20 min) under room temperature conditions. Finally, it was diluted with 10 mM HEPES buffer (pH 7.4) to a desired lipid concentration.
A solution of each lipid in chloroform (5 mM DOTAP 24.75 μL, 5 mM DOPE 33 μL, 5 mM Chol 24.75 μL) were mixed in a glass test tube at DOTAP:DOPE:Chol=3:4:3 to achieve 412.5 nmol total lipid. Ethanol was added to a total amount of 250 μL, and the mixture was dried under reduced pressure in a desiccator. The solvent was evaporated to give a lipid thin film. To the lipid thin film was added 250 μL of the gene electrostatic complex (in 10 mM HEPES; pH 7.4) prepared in [Experimental Example 1] (1) to a total lipid concentration of 1.65 mM, and the mixture was stood at room temperature for 10 min to allow for hydration, and sonicated by a sonicator (AIWA MEDICAL […] CO., LTD.) for 1 min.
The particle size and the surface potential were measured by the dynamic light scattering method (Zetasizer Nano; Malve Rn). The particle size and the surface potential of the various MENDs prepared by the preparation method of [Experimental Example 1] are shown in Table 3. The charge of B-2 and DODAP at physiological pH was in a preferable mode of −10 to +10 mV, whereas that of B-2-1 was +12.3, which is not less than +10 mV.
(1) MEND having a composition of B-2-4 (Example 4):DOPE:Chol=3:3:4 or B-2-5 (Example 5):POPE:Chol=3:4:3 was prepared according to the method described in [Experimental Example 1] (1) and (2).
The particle size and the surface potential were measured by the dynamic light scattering method (Zetasizer Nano; Malvern). The particle size and the surface potential of the various MENDs prepared by the preparation method of [Experimental Example 1] are shown in Table 4.

[2] = system: HT1080 cells; assay: Gene expression by MEND (luciferase assay, RLU/mg protein); type: cell-based; conditions: for gene expression activity (luciferase activity per cell protein): cationic lipid:SOPE:Chol=3:4:3, PEG2000DSG, pDNA 0.4 μg/well, 24 hr; for gene expression activity: B-2-4:DOPE:Chol=3:3:4, B-2-5:POPE:Chol=3:3:4, B-2:SOPE:Chol=5:3:2, PEG2000-DMG
Experimental: Using B-2 (Example 1), B-2-1 (Comparative Example 1), and DODAP (Comparative Example 2) as cationic lipids, MENDs having a composition of cationic lipid:SOPE:Chol=3:4:3 were prepared by the method described in [Experimental Example 1] (2). For the preparation, PEG2000DSG was used as PEG lipid, and MEND solutions corresponding to 0.55 mM of the lipid concentration were prepared. For cationic MEND, lipids having a composition of DOTAP:DOPE:Chol:=3:4:3 were used, and the cationic MEND was prepared according to the method described in [Experimental Example 1] (3).
HT1080 cells were plated on a 24-well plate at 4×10^4 cells/500 μL/well 24 hr before, various MENDs were diluted with DMEM (FBS 10%+) to a pDNA amount of 0.4 μg/500 μL/well and transfected. 24 hr later, the cells were washed with PBS(−) (500 μL), 1× Lysis buffer was added to each well by 75 μL, and the mixture was stood at −80° C. for 30 min or longer. The frozen 24-well plate was thawed on ice, the cells were detached with a cell scraper, and the total amount thereof was transferred into an Eppendorf tube and centrifuged under the conditions of 15000 rpm, 4° C., 5 min. The supernatant (50 μL) was recovered in a different Eppendorf tube, and used for luciferase assay and BCA assay.
20 μL thereof was mixed with a Luciferase assay substrate (50 μL), and the luciferase activity in a given time was measured by a luminometer. The obtained lysate was diluted 5-fold with DDW to achieve 25 μL total volume. Thereto was added BCA Protein Assay Reagent (200 μL), and the mixture was stood at 37° C. for 30 min. Thereafter, the absorbance at 562 nm was measured, and the protein amount of the sample was calculated from the absorbance of a BSA solution having a known concentration. The luciferase activity (RLU) was adjusted by dividing with protein amount (mg), and the luciferase activity per cell protein amount (RLU/mg protein) was calculated.
Using B-2 (Example 1), B-2-2 (Example 2), and B-2-3 (Example 3) as cationic lipids, MENDs having a composition of cationic lipid:SOPE:Chol=3:4:3 were prepared by the method described in [Experimental Example 1] (2). For the preparation, PEG2000DSG was used as PEG lipid, and MEND solutions corresponding to 0.55 mM of the lipid concentration were prepared. The gene expression was evaluated by the method described in [Example 4] (2).
Using compositions of B-2-4 (Example 4):DOPE:Chol=3:3:4, B-2-5 (Example 5):POPE:Chol=3:3:4, B-2 (Example 1):SOPE:Chol=5:3:2 as lipids, MENDs were prepared according to [Experimental Example 1](1) and (2). For the preparation, PEG2000-DMG was used as PEG lipid, and MEND solutions corresponding to 0.55 mM of the lipid concentration were prepared.
The gene expression activity was evaluated by the method described in [Experimental Example 4] (2).

[3] = pDNA MEND, cationic lipid:SOPE:Chol = 3:4:3
[4] = pDNA MEND, cationic lipid:SOPE:Chol = 5:3:2
[5] = pDNA MEND, DOTAP:DOPE:Chol = 3:4:3
[6] = pDNA MEND, cationic lipid:DOPE:Chol = 3:3:4
[7] = pDNA MEND, cationic lipid:POPE:Chol = 3:4:3

Compound	PDI [1, 3]	size (nm) [1, 3] [nm]	zeta (mV) [1, 3] [mV]	PDI [1, 4]	size (nm) [1, 4] [nm]	zeta (mV) [1, 4] [mV]	gene expression activity (luciferase activity per cell protein) [2]	gene expression activity [2]	also measured
CCCCCCCC/C=C\CCCCCCCC(=O)OCC(CN(C)C)OC(=O)CCCCCCC/C=C\CCCCCCCC (stereo not shown) [DODAP, reference compound]	0.093	151.1	−3.18	0.106	165.6	4.13	–	–	–
CCCCCCCC/C=C\CCCCCCCC(=O)OCC(C[N+](C)(C)C)OC(=O)CCCCCCC/C=C\CCCCCCCC (stereo not shown) [DOTAP, reference compound]	–	–	–	–	–	–	–	–	surface potential of MEND ([1]; pDNA MEND using DOTAP): about +50 mV; PDI [1, 5]: 0.295; size (nm) [1, 5]: 235.8 nm; zeta (mV) [1, 5]: 57.9 mV
CCCCCCCCCCCCCC(=O)OCCCN(C)CCCCCCN(C)CCCOC(=O)CCCCCCCCCCCCC [Example B-2-1, reference compound]	0.07	150.3	12.4	0.084	147.8	12.3	exceeded that of a conventionally-known cationic lipid, DODAP	–	charge at physiological pH ([1]; pDNA MEND): +12.3 mV
CC1=C(/C=C/C(C)=C/C=C/C(C)=C/C(=O)OCCCN(C)CCSSCCN(C)CCCOC(=O)/C=C(C)/C=C/C=C(C)/C=C/C2=C(C)CCCC2(C)C)C(C)(C)CCC1 [Example B-2-4]	–	–	–	–	–	–	–	significantly higher than the activity of B-2 and B-2-5	PDI [1, 6]: 0.12; size (nm) [1, 6]: 146.7 nm; zeta (mV) [1, 6]: −7.22 mV
Cc1c(C)c2c(c(C)c1OC(=O)CCC(=O)OCCCN(C)CCSSCCN(C)CCCOC(=O)CCC(=O)Oc1c(C)c(C)c3c(c1C)CCC(C)(CCCC(C)CCCC(C)CCCC(C)C)O3)CCC(C)(CCCC(C)CCCC(C)CCCC(C)C)O2 (stereo not shown) [Example B-2-5]	–	–	–	–	–	–	–	equivalent to the activity of B-2	PDI [1, 7]: 0.15; size (nm) [1, 7]: 131.7 nm; zeta (mV) [1, 7]: −9.35 mV
CCCCCCCCCCCCCC(=O)OCCCN(C)CCSSCCN(C)CCCOC(=O)CCCCCCCCCCCCC [Example B-2]	0.14	156.3	−0.08	0.11	168.9	−2.95	exceeded that of a conventionally-known cationic lipid, DODAP; also recorded: significantly higher than that of MEND prepared from B-2-1; also recorded: equivalent to that of DOTAP	–	gene transfer activity divided by the intracellular uptake amount ([2]; FIG. 4): high as compared to conventional DOTAP, DODAP and B-2-1

Source: patent publication US9708628B2, “Cationic lipid having improved intracellular kinetics” (NOF CORPORATION, priority 2011, dated 2017)
